Measured values published in patent publication US10517889B2, “Modulators of SMAD7 expression” (Ionis Pharmaceuticals, Inc., priority 2017, dated 2019).
Strand notation (5' to 3'): a small letter for the sugar, then the base; units joined by * are phosphorothioate-linked, units joined directly phosphodiester-linked; [ ] holds rarer units or linkages, { } end groups; capitals alone tell only the bases. k = constrained ethyl (cEt); [5mC] = 5-methylcytosine; d = 2'-deoxy (DNA)

Tested on: human SMAD7 mRNA
Experiment: Antisense inhibition of human SMAD7 mRNA expression in Hep3B cells by 3-10-3 cEt gapmers, 10,000 nM, electroporation (Example 2)
Type: cell-based
Settings: SMAD7 mRNA, Hep3B cells, electroporation with 10,000 nM antisense oligonucleotide, approximately 24 hours, primer probe set RTS5062, relative to untreated control cells
Method in brief: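 Hep3B cells (20,000 per well) were electroporated with 10,000 nM 16-mer 3-10-3 cEt gapmer (phosphorothioate, 5-methylcytosine). After about 24 h, SMAD7 mRNA was quantified by qRT-PCR with primer probe set RTS5062, normalised to RIBOGREEN total RNA, and expressed as percent inhibition versus untreated cells.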

Point of comparison: “829850 (antisense kT*kT*kG*dT*dT*dG*dT*d[5mC]*d[5mC]*dG*dA*dA*dT*kT*kG*kA) [compound 829850]”, “% Inhibition” value 36%. Against it:
- 829795 (kT*kG*kA*dT*d[5mC]*dT*dT*d[5mC]*d[5mC]*d[5mC]*dG*dT*dA*kA*kG*kA; antisense) [compound 829795] — lower, 34%
- 829796 (kT*kT*kG*dA*dT*d[5mC]*dT*dT*d[5mC]*d[5mC]*d[5mC]*dG*dT*kA*kA*kG; antisense) [compound 829796] — lower, 27%
- 829797 (kG*kG*kT*dT*dG*dA*dT*d[5mC]*dT*dT*d[5mC]*d[5mC]*d[5mC]*kG*kT*kA; antisense) [compound 829797] — higher, 54%
- 829798 (kG*kG*kG*dT*dT*dG*dA*dT*d[5mC]*dT*dT*d[5mC]*d[5mC]*k[5mC]*kG*kT; antisense) [compound 829798] — lower, 26%
- 829799 (kT*k[5mC]*kG*dG*d[5mC]*dT*dA*dA*dG*dG*dT*dG*dA*kT*kG*kG; antisense) [compound 829799] — higher, 51%
- 829800 (kG*kT*k[5mC]*dG*dG*d[5mC]*dT*dA*dA*dG*dG*dT*dG*kA*kT*kG; antisense) [compound 829800] — lower, 30%
- 829801 (kA*kG*kT*d[5mC]*dG*dG*d[5mC]*dT*dA*dA*dG*dG*dT*kG*kA*kT; antisense) [compound 829801] — lower, 8%
- 829802 (kT*kT*k[5mC]*dG*d[5mC]*dA*dG*dA*dG*dT*d[5mC]*dG*dG*k[5mC]*kT*kA; antisense) [compound 829802] — lower, 28%
- 829803 (kA*kG*kT*dT*d[5mC]*dG*d[5mC]*dA*dG*dA*dG*dT*d[5mC]*kG*kG*k[5mC]; antisense) [compound 829803] — lower, 35%
- 829804 (kT*kA*kG*dT*dT*d[5mC]*dG*d[5mC]*dA*dG*dA*dG*dT*k[5mC]*kG*kG; antisense) [compound 829804] — higher, 39%
- 829805 (kT*k[5mC]*kT*dA*dG*dT*dT*d[5mC]*dG*d[5mC]*dA*dG*dA*kG*kT*k[5mC]; antisense) [compound 829805] — higher, 37%
- 829806 (kG*kA*k[5mC]*dT*d[5mC]*dT*dA*dG*dT*dT*d[5mC]*dG*d[5mC]*kA*kG*kA; antisense) [compound 829806] — higher, 41%
- 829807 (kA*kG*kA*d[5mC]*dT*d[5mC]*dT*dA*dG*dT*dT*d[5mC]*dG*k[5mC]*kA*kG; antisense) [compound 829807] — higher, 41%
- 829808 (kG*kG*kA*dG*dA*d[5mC]*dT*d[5mC]*dT*dA*dG*dT*dT*k[5mC]*kG*k[5mC]; antisense) [compound 829808] — higher, 53%
- 829809 (kG*kG*kG*dA*dG*dA*d[5mC]*dT*d[5mC]*dT*dA*dG*dT*kT*k[5mC]*kG; antisense) [compound 829809] — higher, 51%
- 829810 (kA*kT*k[5mC]*dG*dG*dG*dT*dA*dT*d[5mC]*dT*dG*dG*kA*kG*kT; antisense) [compound 829810] — lower, 29%
- 829811 (kT*k[5mC]*k[5mC]*dA*dT*d[5mC]*dG*dG*dG*dT*dA*dT*d[5mC]*kT*kG*kG; antisense) [compound 829811] — lower, 0%
- 829814 (kG*kT*k[5mC]*dT*dG*d[5mC]*dA*dG*dT*dT*dG*dG*dT*kT*kT*kG; antisense) [compound 829814] — higher, 94%
- 829822 (kT*kG*kT*dT*dT*d[5mC]*dA*dG*d[5mC]*dG*dG*dA*dG*kG*kA*kA; antisense) [compound 829822] — higher, 43%
- 829829 (kT*k[5mC]*kT*dG*dA*dA*dA*dG*d[5mC]*d[5mC]*d[5mC]*d[5mC]*d[5mC]*k[5mC]*kA*kG; antisense) [compound 829829] — lower, 11%
- 829830 (kA*kA*kT*d[5mC]*dT*dG*dA*dA*dA*dG*d[5mC]*d[5mC]*d[5mC]*k[5mC]*k[5mC]*k[5mC]; antisense) [compound 829830] — the same, 36%
- 829831 (kG*kA*k[5mC]*d[5mC]*dG*dA*dT*d[5mC]*d[5mC]*d[5mC]*d[5mC]*dA*dG*kG*k[5mC]*kT; antisense) [compound 829831] — lower, 9%
- 829832 (kT*kG*kA*d[5mC]*d[5mC]*dG*dA*dT*d[5mC]*d[5mC]*d[5mC]*d[5mC]*dA*kG*kG*k[5mC]; antisense) [compound 829832] — higher, 51%
- 829833 (kG*kT*kG*dA*d[5mC]*d[5mC]*dG*dA*dT*d[5mC]*d[5mC]*d[5mC]*d[5mC]*kA*kG*kG; antisense) [compound 829833] — lower, 0%
- 829834 (kG*kT*kG*dT*dG*dA*d[5mC]*d[5mC]*dG*dA*dT*d[5mC]*d[5mC]*k[5mC]*k[5mC]*kA; antisense) [compound 829834] — lower, 29%
- 829835 (k[5mC]*kA*kG*dT*dG*dT*dG*dA*d[5mC]*d[5mC]*dG*dA*dT*k[5mC]*k[5mC]*k[5mC]; antisense) [compound 829835] — higher, 52%
- 829836 (k[5mC]*k[5mC]*kA*dG*dT*dG*dT*dG*dA*d[5mC]*d[5mC]*dG*dA*kT*k[5mC]*k[5mC]; antisense) [compound 829836] — higher, 48%
- 829837 (k[5mC]*k[5mC]*kA*dG*dT*dA*dT*dG*d[5mC]*d[5mC]*dA*d[5mC]*d[5mC]*kA*k[5mC]*kG; antisense) [compound 829837] — lower, 16%
- 829838 (k[5mC]*k[5mC]*k[5mC]*dA*dG*dT*dA*dT*dG*d[5mC]*d[5mC]*dA*d[5mC]*k[5mC]*kA*k[5mC]; antisense) [compound 829838] — lower, 28%
- 829839 (kA*k[5mC]*kA*d[5mC]*dA*dG*dT*dA*dG*dA*dG*d[5mC]*d[5mC]*kT*k[5mC]*k[5mC]; antisense) [compound 829839] — lower, 8%
- 829840 (kG*kG*kA*d[5mC]*dA*d[5mC]*dA*dG*dT*dA*dG*dA*dG*k[5mC]*k[5mC]*kT; antisense) [compound 829840] — lower, 0%
- 829841 (kT*kG*kG*dA*d[5mC]*dA*d[5mC]*dA*dG*dT*dA*dG*dA*kG*k[5mC]*k[5mC]; antisense) [compound 829841] — higher, 50%
- 829842 (k[5mC]*k[5mC]*kG*dA*dG*dG*d[5mC]*dA*dA*dA*dA*dG*d[5mC]*k[5mC]*kA*kT; antisense) [compound 829842] — lower, 26%
- 829843 (antisense kG*kA*kA*dT*dT*dG*dA*dG*d[5mC]*dT*dG*dT*d[5mC]*k[5mC]*kG*kA) [compound 829843] — higher, 49%
- 829844 (antisense k[5mC]*kG*kA*dA*dT*dT*dG*dA*dG*d[5mC]*dT*dG*dT*k[5mC]*k[5mC]*kG) [compound 829844] — higher, 49%
- 829845 (antisense kT*k[5mC]*k[5mC]*dG*dA*dA*dT*dT*dG*dA*dG*d[5mC]*dT*kG*kT*k[5mC]) [compound 829845] — higher, 40%
- 829846 (antisense kG*kT*k[5mC]*d[5mC]*dG*dA*dA*dT*dT*dG*dA*dG*d[5mC]*kT*kG*kT) [compound 829846] — lower, 29%
- 829847 (antisense kT*kG*kT*d[5mC]*d[5mC]*dG*dA*dA*dT*dT*dG*dA*dG*k[5mC]*kT*kG) [compound 829847] — higher, 64%
- 829848 (antisense kT*kT*kG*dT*d[5mC]*d[5mC]*dG*dA*dA*dT*dT*dG*dA*kG*k[5mC]*kT) [compound 829848] — higher, 47%
- 829849 (antisense kT*kG*kT*dT*dG*dT*d[5mC]*d[5mC]*dG*dA*dA*dT*dT*kG*kA*kG) [compound 829849] — higher, 49%
- 829851 (antisense k[5mC]*kT*kT*dG*dT*dT*dG*dT*d[5mC]*d[5mC]*dG*dA*dA*kT*kT*kG) [compound 829851] — lower, 31%
- 829852 (antisense kT*k[5mC]*kT*dT*dG*dT*dT*dG*dT*d[5mC]*d[5mC]*dG*dA*kA*kT*kT) [compound 829852] — lower, 33%
- 829853 (antisense kA*k[5mC]*kT*d[5mC]*dT*dT*dG*dT*dT*dG*dT*d[5mC]*d[5mC]*kG*kA*kA) [compound 829853] — higher, 42%
- 829854 (antisense kG*k[5mC]*kT*dG*dA*d[5mC]*dT*d[5mC]*dT*dT*dG*dT*dT*kG*kT*k[5mC]) [compound 829854] — lower, 25%
- 829855 (antisense kA*kG*k[5mC]*dT*dG*dA*d[5mC]*dT*d[5mC]*dT*dT*dG*dT*kT*kG*kT) [compound 829855] — lower, 0%
- 829856 (antisense kA*k[5mC]*k[5mC]*dA*dG*d[5mC]*dT*dG*dA*d[5mC]*dT*d[5mC]*dT*kT*kG*kT) [compound 829856] — higher, 41%
- 829857 (antisense kT*kG*k[5mC]*dA*d[5mC]*d[5mC]*dA*dG*d[5mC]*dT*dG*dA*d[5mC]*kT*k[5mC]*kT) [compound 829857] — lower, 31%
- 829858 (antisense kT*kG*k[5mC]*dT*d[5mC]*d[5mC]*dG*d[5mC]*dA*d[5mC]*d[5mC]*dT*dT*k[5mC]*kT*kG) [compound 829858] — higher, 59%
- 829859 (antisense kT*kT*kT*dT*dG*d[5mC]*dT*d[5mC]*d[5mC]*dG*d[5mC]*dA*d[5mC]*k[5mC]*kT*kT) [compound 829859] — higher, 39%
- 829860 (antisense kG*kT*k[5mC]*dA*dG*d[5mC]*dT*dG*dG*dA*dT*dG*d[5mC]*k[5mC]*kG*k[5mC]) [compound 829860] — lower, 31%
- 829861 (antisense k[5mC]*k[5mC]*kA*dT*d[5mC]*d[5mC]*dA*d[5mC]*d[5mC]*dT*d[5mC]*d[5mC]*d[5mC]*kG*k[5mC]*kG) [compound 829861] — lower, 35%
- 829862 (antisense k[5mC]*kT*kG*d[5mC]*dT*dG*d[5mC]*dG*dG*dT*dT*dG*dT*kA*k[5mC]*kA) [compound 829862] — lower, 22%
- 829863 (antisense kA*k[5mC]*kT*dG*d[5mC]*dT*dG*d[5mC]*dG*dG*dT*dT*dG*kT*kA*k[5mC]) [compound 829863] — lower, 31%
